Data taken from patent US11717557B2, “Use of PRG4 as an anti-inflammatory agent” (Lubris LLC, priority 2015, dated 2023).

Key:
[1] = Serum cytokine levels after DMM surgery and intraarticular lubricin; type: in vivo, rat; conditions: single intraarticular dose 200 μg/kg seven days after DMM surgery; samples 3 weeks after dose; versus saline
Method: In order to determine if lubricin could modulate pro-inflammatory cytokine levels in vivo, a rat model was used. Nine rats were subject to surgery to destabilize the medial meniscus (DMM surgery). Seven days after surgery, each rat received a single intraarticular dose of lubricin of 200 μg/kg. Control rats received an injection of an equal volume of saline. Cytokine levels in serum samples taken from the […] were compared with […] who received surgery but no dose of lubricin post-surgery. Samples were drawn 3 weeks after the dose of lubricin was administered and analyzed using the Luminex Multiplex platform. The results are shown in FIG. 13 where the measured levels of EPO, IL-13, IL-10, IL-18, IL-1α, IL-2, MCSF, IL-1β, IL-4, IFN-γ, MIP-3α, GMCSF, IL-7, TNF-α, VEGF, MCP-1, IL-5, G-CSF, RANTES, IL-6, GRO, IL-17α, and IL-12p70 are shown. The levels of IL-18, MCSF, MCP-1, RANTES, and GRO were all reduced in rats receiving lubricin as compared to rats that were injected with saline alone.

human whole blood = experiment: Lubricin on tissue factor mediated inflammatory cytokine generation in whole blood; type: cell-based
Method: The effect of lubricin on recombinant tissue factor (TF) mediated inflammatory cytokine generation was studied using Biochip Array technology. In these studies recombiplastin brand (IL Laboratories) tissue factor was used to trigger the generation of inflammatory cytokines in human whole blood. The effect of lubricin at 0.57 mg/mL was studied by supplementing this agent prior to the addition of tissue factor to the whole blood. Tissue factor alone served as a positive control. The blood samples were centrifuged and plasma retrieved. This plasma was then profiled for the inflammatory cytokine profile on the Randox Biochip arrays. TF was supplemented to whole blood in a 1:10 dilution.

CD44 = biological target: T1, CD44 (Homo sapiens, UniProt P16070); experiment: Concentration-dependent binding to CD44, direct ELISA
T1 construct: purchased R & D systems
T1 sequence (P16070 with tags, fused parts or gaps limits assumed): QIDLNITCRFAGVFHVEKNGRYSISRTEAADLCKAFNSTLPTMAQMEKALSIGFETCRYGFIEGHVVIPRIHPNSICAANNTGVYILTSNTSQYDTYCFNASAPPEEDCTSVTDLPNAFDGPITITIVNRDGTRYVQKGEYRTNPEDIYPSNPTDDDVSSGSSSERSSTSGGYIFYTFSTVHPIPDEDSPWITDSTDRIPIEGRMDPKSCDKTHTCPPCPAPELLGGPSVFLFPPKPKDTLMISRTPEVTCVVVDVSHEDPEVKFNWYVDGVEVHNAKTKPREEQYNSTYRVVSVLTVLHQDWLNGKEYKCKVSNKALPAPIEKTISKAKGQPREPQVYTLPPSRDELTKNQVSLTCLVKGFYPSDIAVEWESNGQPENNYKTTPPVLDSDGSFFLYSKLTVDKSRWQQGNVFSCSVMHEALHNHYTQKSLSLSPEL
Method: (§1) High-binding microtiter plates (Corning, Sigma Aldrich, USA) were coated with rhPRG4 (Mr≅240 KDa), high molecular weight HA (HMW HA; Mr≈1,500 KDa) (R & D System, USA), medium molecular weight HA (MMW HA; Mr≈300 KDa) (R & D System) and vitronectin (Mr≅75 KDa) (Sigma Aldrich) at 400 μg/mL in PBS buffer (100 μL per well) overnight at 4° C. rhPRG4 is a full-length product produced by CHO-M cells (Lubris, Framingham, Mass., USA). Following washing with PBS+0.1% Tween 20, wells were blocked with 2% bovine serum albumin (BSA; 300 μL per well) for at least 2 hours at room temperature. CD44-IgG1Fc (R & D systems) or IgG1Fc (R & D systems), each at 1 μg/mL (100 μl per well), were added to the plate and incubated for 60 min at room temperature. Following washing with PBS+0.1% tween 20, anti-IgG1Fc-HRP (Sigma Aldrich) was added at 1:10,000 dilution (100 μL per well) and incubated for 60 min at room temp. Following washing with PBS+0.1% tween 20, the assay was developed using 1-step Turbo TMB ELISA reagent (ThermoScientific, USA) and absorbance was measured at 450 nm. The data represents an average of 4 independent assays, each with triplicate wells per group.
The concentration-dependent binding of rhPRG4, HMW HA and MMW HA to CD44 was performed by coating microtiter plates with 400, 200, 100, 20, 4, 2 and 0.1 μg/mL of the macromolecules. The assay was performed as described above. The absorbance values in the IgG1Fc wells were subtracted from the absorbance values in the CD44 IgG1Fc wells and the corrected CD44 IgG1Fc absorbance values were normalized to those of the 400 μg/mL rhPRG4 group and data was expressed as percentage binding to CD44. The concentration-dependent binding of rhPRG4, HMW HA and MMW HA to recombinant CD44 is depicted in FIG. 1B. […] The data represents an average of 4 independent assays, each with triplicate wells per group.

whole citrated blood = experiment: Lubricin alone, inflammatory cytokines in whole blood; type: cell-based, human; conditions: lubricin 0.57 mg/mL, 60 minutes; versus saline control
Method: Utilizing the same approach the effect of lubricin on the generation of inflammatory cytokines in whole blood was also studied using similar experimental settings. In these studies the effect of lubricin (0.57 mg/mL) was studied by supplementing it to the whole citrated blood drawn from the normal healthy volunteers. The samples were profiled for inflammatory cytokine levels along with a saline control in samples incubated for 60 minutes. Whole blood was centrifuged to obtain plasma which was profiled for various inflammatory cytokines using high sensitivity cytokine assay.

[2] = system: osteoarthritic (OA) synovial fluid cells; experiment: Cytokines secreted by osteoarthritic synoviocytes (Luminex); type: cell-based, human; conditions: rhPRG4 90 μg/mL, 24 hours, versus PBS
Method: Synovial fluid cells were obtained from normal and osteoarthritic (OA) patients and purified with CD90+ following an immune cell depletion. The cells were plated at 10,000 per well and suspended in media containing DMEM, heat-inactivated Hyclone FBS (10%), and Anti-Anti (1%). The assays contained the cell suspension (cells+ media) at 180 μL and the ligands at 20 μL for a total volume of 200 μL. Recombinant lubricin (rhPRG4) was then introduced to the cells at a concentration of 90 μg/mL and the negative control was PBS. The plate was then incubated at 37° C. at 5% CO2 for 24 hours, after which the supernatants were collected for cytokine analysis via the Luminex multiplex platform.

CD44 IgG1Fc = biological target: T2, CD44 IgG1Fc (Homo sapiens, UniProt P16070); experiment: Direct ELISA: binding of coated macromolecules to CD44-IgG1Fc versus IgG1Fc; conditions: wells coated at 400 μg/mL; CD44-IgG1Fc or IgG1Fc 1 μg/mL; p<0.001 where significant
T2 construct: purchased R & D systems
T2 sequence (P16070 with tags, fused parts or gaps limits assumed): as above
Method: as §1

traumatic brain injury = experiment: Traumatic brain injury model, controlled cortical impact, Western blotting of cerebral cortex; type: in vivo, rats
Method: Approximately one hour after traumatic brain injury to rats, using an established brain injury model involving a controlled cortical impact, rhPRG4 was administered intravenously to test rats at an approximate dose of 2.5 mg/Kg. Normal saline (0.9% NaCl) was administered intravenously to control rats. One day later, brains were harvested and the samples of the cerebral cortex surrounding the post-traumatic lesion were analyzed using Western blotting.

[3] = approx. 2.5 mg/Kg intravenously, versus normal saline

Substance: rhPRG4: full-length recombinant human PRG4 (lubricin) glycoprotein produced by CHO-M cells (Lubris), Mr≅240 KDa
- serum levels of IL-18, MCSF, MCP-1, RANTES and GRO [1]: reduced
- IL-6, IL-8, VEGF, TNF-α, IL-1α, IL-1β, MCP-1 and EGF (human whole blood; lubricin 0.57 mg/mL before tissue factor (1:10), versus TF alone): decrease
- TNF-α and VEGF levels (human whole blood; lubricin 0.57 mg/mL, tissue factor supplemented samples): pronounced decrease
- affinity of concentration-dependent binding to CD44 (CD44): comparable affinity to HMW HA
- percentage CD44 binding, difference between rhPRG4, HMW HA and MMW HA-coated wells (CD44; coating 0.1 μg/mL): no significant differences
- percentage recombinant CD44 binding compared to MMW HA coated wells (CD44; coating 200 μg/mL, p<0.001): significantly higher
- percentage recombinant CD44 binding compared to HMW HA or MMW HA-coated wells (CD44; coating 400, 100, 20, 4 and 2 μg/mL, p<0.001): significantly higher
- VEGF, IL8, IL6 and IL10 (whole citrated blood): most prominent decrease
- production of IL-4, IL-6, IL-8, IL-10, VEGF, TNF-α, IL-1β, MCP-1 and EGF (whole citrated blood): decrease
- FGF-2 and IL-1Ra cytokines [2]: down-regulation
- 450 nm absorbance in the CD44-IgG1Fc group versus the IgG1Fc group (CD44 IgG1Fc): significantly higher
- down regulation of Galectin 3 (traumatic brain injury; approx. 2.5 mg/Kg intravenously about one hour after injury, brains harvested one day later, versus normal saline): 74%
- attenuation of post-traumatic synthesis of matrix metalloproteinase 9 (traumatic brain injury; [3]): 94%
- inhibition of the conversion of pro-matrix metalloproteinase 2 to its enzymatically active form (traumatic brain injury; [3]): 64%
- reduction in the magnitude of post-traumatic influx of monocytes into the injured brain parenchyma (traumatic brain injury; approx. 2.5 mg/Kg intravenously, versus normal saline-treated rats): 60%
- reduction of the permeability of the blood-brain barrier (traumatic brain injury; assessed by level of albumin in traumatized brain tissue, approx. 2.5 mg/Kg intravenously): 80%
